Experimental findings from patent publication US10611760B2, “Therapeutic compounds as inhibitors of the orexin-1 receptor” (C4X Discovery Limited, priority 2014, dated 2020) are described below.

What all share (type): cell-based
Assay [1] addresses T1, hOX1R (Homo sapiens, UniProt O43613).
T1 sequence (O43613 1-425): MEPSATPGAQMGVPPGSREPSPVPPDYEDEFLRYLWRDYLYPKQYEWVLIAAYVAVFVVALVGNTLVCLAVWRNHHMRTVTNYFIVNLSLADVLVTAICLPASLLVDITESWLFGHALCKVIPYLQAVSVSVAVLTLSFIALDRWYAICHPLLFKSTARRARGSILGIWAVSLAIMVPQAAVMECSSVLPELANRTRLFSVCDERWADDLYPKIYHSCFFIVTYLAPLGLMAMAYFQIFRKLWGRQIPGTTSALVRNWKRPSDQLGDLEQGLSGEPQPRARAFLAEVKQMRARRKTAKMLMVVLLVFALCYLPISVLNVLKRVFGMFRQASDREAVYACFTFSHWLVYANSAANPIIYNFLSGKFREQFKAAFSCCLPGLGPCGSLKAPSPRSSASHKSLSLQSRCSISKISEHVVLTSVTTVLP
Briefly: Whole cell FLIPR functional assay, comparison with reference compounds, hOX1R. Also on record: expressed in transfected cells. The settings on record: for Selectivity: orexin-1 receptor over orexin-2 receptor; for IC50: read-out: hOX1R pIC50 (converted). The source says:
(§1) As indicated herein, by whole cell FLIPR functional assay data and by comparison with reference compounds not claimed within the present invention, the compounds of the present invention provide increased selectivity for the orexin-1 receptor over the orexin-2 receptor. The increased selectivity for the orexin-1 receptor over the orexin-2 receptor in the whole cell FLIPR functional assay provides enhanced predictive value for determining in vivo efficacy. Increasing the functional selectivity for the orexin-1 receptor reduces the potential for dual receptor antagonism in vivo. Such greater functional selectivity may provide benefits over other orexin receptor antagonists that are known in the art.

Assay [2] concerns the target T2, hOX2R (Homo sapiens, UniProt O43614).
T2 sequence (O43614 1-444): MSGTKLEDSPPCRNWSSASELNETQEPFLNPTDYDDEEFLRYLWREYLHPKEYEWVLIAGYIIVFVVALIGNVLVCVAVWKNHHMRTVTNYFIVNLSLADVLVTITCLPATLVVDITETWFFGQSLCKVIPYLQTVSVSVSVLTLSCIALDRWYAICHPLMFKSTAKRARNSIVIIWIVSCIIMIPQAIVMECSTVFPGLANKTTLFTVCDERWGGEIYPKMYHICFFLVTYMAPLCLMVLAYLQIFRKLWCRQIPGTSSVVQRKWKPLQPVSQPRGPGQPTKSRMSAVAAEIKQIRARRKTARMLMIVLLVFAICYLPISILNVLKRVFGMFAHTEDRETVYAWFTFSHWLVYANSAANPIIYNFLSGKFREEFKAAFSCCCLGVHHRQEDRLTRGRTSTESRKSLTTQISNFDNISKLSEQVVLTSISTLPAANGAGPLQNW
The experiment in a line: Whole cell FLIPR functional assay, comparison with reference compounds, hOX2R. On the set-up: expressed in transfected cells. The settings on record: read-out: hOX2R pIC50 (converted).
Source text: as §1

Assay [3] concerns the target T3, orexin-1 (Homo sapiens, UniProt O43613).
T3 construct: expressed in transfected cells
T3 sequence (O43613 1-425): T1 sequence (O43613 1-425)
The experiment in a line: Antagonism against orexin-1 in the aforementioned (above identified) intracellular calcium assays. The source says: Antagonism against orexin receptors has been measured for each example compound using at least one of the following procedures. […] These values may fluctuate depending on the daily cellular assay performance. Fluctuations of this kind are known to those skilled in the art. […] Data highlighted with an asterix (*) is derived from a single experiment, otherwise all data reported is an average of at least two independant replicate experiments. […]
On the technique in general: A change in cytosolic calcium serves as a functional read-out for many receptors and channels.

The target of assay [4] is T1, hOX1R. The experiment in a line: Intracellular calcium measurements using division-arrested cells, OX1. The settings on record: agonist orexin A at 2×EC50, * = single experiment, otherwise average of at least two, read-out: pIC50 OX1 (converted). A digest of the protocol:
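Division-arrested cells expressing human OX1 or OX2 were seeded for 16 h, then loaded with Calcium 5 dye plus probenecid for 1 h at 37 °C. Compounds in HEPES-buffered HBSS with 0.1% BSA, pH 7.4, top final concentration 10 μM, were added 10 min before the FlexStation calcium read.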

With `CC(C)[C@H](CNc1ccc(Cl)cn1)N(C)C(=O)c1ccccc1-c1ccccc1`, in assay [1], the Selectivity entry is reported as “Selectivity 1.9x” and the IC50 is 1000 nM. The IC50 in assay [2] is 2000 nM.

Regarding `CN(CCNc1ccc(Cl)cn1)C(=O)c1ccccc1-c1ccccc1`, in assay [1], the Selectivity entry is reported as “Selectivity 1.1x” and the IC50 is 63.1 nM. Further, the IC50 in assay [2] is 79.4 nM.

For the compound `CC[C@@H](CNc1ccc(Cl)cn1)N(C)C(=O)c1cc(C)ccc1N1CCN(C)CC1` [(S)—N-(1-((5-chloropyridin-2-yl)amino)butan-2-yl)-N,5-dimethyl-2-(4-methylpiperazin-1-yl)benzamide], the IC50 in assay [3] is greater than 10000 nM.

Turning to `CC[C@@H](CNc1ccc(Cl)cn1)N(C)C(=O)c1cc(C(F)(F)F)ccc1-n1ccnn1` [(S)—N-(1-((5-chloropyridin-2-yl)amino)butan-2-yl)-N-methyl-2-(1H-1,2,3-triazol-1-yl)-5-(trifluoromethyl)benzamide], the IC50 in assay [3] is 4900 nM.

As to `CC[C@@H](CNC(=O)c1ccccn1)N(C)C(=O)c1cc(Cl)ccc1-n1nccn1` [(S)—N-(2-(5-chloro-N-methyl-2-(2H-1,2,3-triazol-2-yl)benzamido)butyl)picolinamide], the IC50 in assay [3] was greater than 10000 nM.

As to `CC(C)[C@@H](CNc1ccc(Cl)cn1)N(C)C(=O)c1ccccc1-c1ccccc1` [Example 10, (S)—N-(1-((5-chloropyridin-2-yl)amino)-3-methylbutan-2-yl)-N-methyl-[1,1′-biphenyl]-2-carboxamide], the IC50 in assay [4] is 79.4 nM; in assay [1], 79.4 nM; in assay [2] it was 6310 nM. The Selectivity entry in assay [1] was “Selectivity 80x”.

As for `Cc1ccc(-n2nccn2)c(C(=O)N(C)C(CNc2ccc(Cl)cn2)C2COC2)c1` (centres unmarked) [N-(2-((5-chloropyridin-2-yl)amino)-1-(oxetan-3-yl)ethyl)-N,5-dimethyl-2-(2H-1,2,3-triazol-2-yl)benzamide], in assay [3], the IC50 was greater than 10000 nM.
